What is called IC50 is the concentration needed to halve the response being measured. The term inhibition denotes the change of the read-out against control, counted positive when it falls.

Assay [1] has as its target Isocitrate dehydrogenase [NADP] cytoplasmic (Homo sapiens, UniProt O75874, R132H). The assay is described as follows: Inhibition of IDH1 R132H mutant (unknown origin) assessed as reduction in NADPH consumption using alpha-KG as substrate incubated for 5 mins by diaphorase/resazurin-coupled system. On the technique in general: The colour change of resazurin is a common sign of viable cells or microbes.

In assay [2] the test system is Isocitrate dehydrogenase [NADP] cytoplasmic (Homo sapiens), O75874 [R132C]. The assay is described as follows: Inhibition of IDH1 R132C mutant (unknown origin) assessed as reduction in NADPH consumption using alpha-KG as substrate at 38 uM incubated for 5 mins by diaphorase/resazurin-coupled system relative to control.
Assay [3] deals with Isocitrate dehydrogenase [NADP] cytoplasmic (Homo sapiens), O75874 [R132H]. Put plainly: Inhibition of IDH1 R132H mutant (unknown origin) assessed as reduction in NADPH consumption using alpha-KG as substrate at 38 uM incubated for 5 mins by diaphorase/resazurin-coupled system relative to control.
The target of assay [4] is Isocitrate dehydrogenase [NADP] cytoplasmic (Homo sapiens, UniProt O75874, R132C). Put plainly: Inhibition of IDH1 R132C mutant (unknown origin) assessed as reduction in NADPH consumption using alpha-KG as substrate incubated for 5 mins by diaphorase/resazurin-coupled system.
Chain of Isocitrate dehydrogenase [NADP] cytoplasmic (Homo sapiens, UniProt O75874, R132C) (O75874 2-414 R132C limits assumed): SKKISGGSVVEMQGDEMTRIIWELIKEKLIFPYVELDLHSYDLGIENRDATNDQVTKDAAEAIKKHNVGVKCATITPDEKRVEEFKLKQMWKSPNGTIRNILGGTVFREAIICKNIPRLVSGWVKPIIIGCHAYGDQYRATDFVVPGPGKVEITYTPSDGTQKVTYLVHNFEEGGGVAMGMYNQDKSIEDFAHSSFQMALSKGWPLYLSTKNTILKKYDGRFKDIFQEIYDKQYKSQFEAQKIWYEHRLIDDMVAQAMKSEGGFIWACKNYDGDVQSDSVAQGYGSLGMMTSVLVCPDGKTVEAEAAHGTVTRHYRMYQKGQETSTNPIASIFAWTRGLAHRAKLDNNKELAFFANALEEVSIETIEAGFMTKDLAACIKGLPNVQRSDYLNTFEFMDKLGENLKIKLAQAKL

Chain of Isocitrate dehydrogenase [NADP] cytoplasmic (Homo sapiens), O75874 [R132C] (O75874 whole entry R132C): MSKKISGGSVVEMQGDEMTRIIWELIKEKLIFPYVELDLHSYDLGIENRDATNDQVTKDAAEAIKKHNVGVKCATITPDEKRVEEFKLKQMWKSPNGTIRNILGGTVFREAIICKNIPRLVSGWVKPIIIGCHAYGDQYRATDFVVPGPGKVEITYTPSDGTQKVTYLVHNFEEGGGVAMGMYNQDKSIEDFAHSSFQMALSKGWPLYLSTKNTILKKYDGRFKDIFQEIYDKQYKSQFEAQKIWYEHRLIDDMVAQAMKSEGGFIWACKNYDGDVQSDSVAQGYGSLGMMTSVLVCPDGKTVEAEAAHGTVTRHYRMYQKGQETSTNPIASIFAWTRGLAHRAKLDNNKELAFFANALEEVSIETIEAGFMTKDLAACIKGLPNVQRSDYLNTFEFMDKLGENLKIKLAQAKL
Chain of Isocitrate dehydrogenase [NADP] cytoplasmic (Homo sapiens), O75874 [R132H] (O75874 whole entry R132H): as the sequence (O75874 whole entry R132C) above, with C132H counted along it
Chain of Isocitrate dehydrogenase [NADP] cytoplasmic (Homo sapiens, UniProt O75874, R132H) (O75874 2-414 R132H limits assumed): as the sequence (O75874 2-414 R132C limits assumed) above, with C131H counted along it

On to `COC(=O)c1ccsc1-n1c2c(cc(-c3nc(-c4ccc(Cl)cc4)cs3)c1=O)C(=O)CC(C)(C)C2`, for which the IC50 in assay [1] and in assay [4] was 470 nM in each case. In addition, the inhibition in assay [2] worked out at 83%; in assay [3], 94%.
For `CCc1cccc(CC)c1-n1c(C(C)C)c(C(=O)N2CCNCC2)cc(-c2nc(-c3ccc(Cl)cc3)cs2)c1=O`, the half-maximal inhibitory concentration (IC50) in assay [1] stood at 420 nM; in assay [4], 390 nM. Besides, the inhibition was determined as 92% in assay [2] and 102% in assay [3].
Regarding `COc1ccc(C(=O)O)cc1-n1c2c(cc(-c3nc(-c4ccc(Cl)cc4)cs3)c1=O)C(=O)CC(C)(C)C2`, the figures for the IC50 in assay [1] and in assay [4] were 12000 nM and 14000 nM, respectively. For the same compound, the figures for the inhibition in assay [2] and in assay [3] were 86% and 108%, respectively.
`COc1ccc(OC)c(-n2c3c(cc(-c4nc(-c5ccc(Cl)cc5)cs4)c2=O)C(=O)CC(C)(C)C3)c1`: the IC50 came out at 1600 nM in assay [1] and 1000 nM in assay [4]. In addition, the inhibition in assay [2] was 85%; in assay [3], 84%.
For `COc1ccc(OC)c(-n2c3c(cc(-c4cn(-c5ccc(Cl)cc5)cn4)c2=O)C(=O)CC(C)(C)C3)c1`, the inhibition in assay [3] was 41%. For the same compound, the half-inhibitory concentration (IC50) in assay [4] is over 38000 nM.
Turning to `CCc1cccc(CC)c1-n1c(C)c(C(=O)N2CCNCC2)cc(-c2nc(-c3ccc(Cl)cc3)cs2)c1=O`, the IC50 amounted to 210 nM in assay [1] and 1500 nM in assay [4]. In addition, the values for the inhibition in assay [2] and in assay [3] were 93% and 103%, respectively.
With `CCc1cccc(CC)c1-n1c(CC2CCOC2)c(C(=O)N2CCNCC2)cc(-c2nc(-c3ccc(Cl)cc3)cs2)c1=O` (stereo not given), the IC50 was found to be 75 nM in assay [1] and 130 nM in assay [4]. For the same compound, the results for the inhibition in assay [2] and in assay [3] were 91% and 105%, respectively.
Taken in the same sequence, the figures for `CCc1cccc(CC)c1-n1c(C)c(C(=O)NCCOC)cc(-c2nc(-c3ccc(Cl)cc3)cs2)c1=O` were 2100 nM, 730 nM, 102% and 92%.
In the same order, the values of `CCc1cccc(CC)c1-n1c(CC2CCOCC2)c(C(=O)N2CCNCC2)cc(-c2nc(-c3ccc(Cl)cc3)cs2)c1=O` are 1100 nM, 980 nM, 79% and 93%.
`CCc1cccc(CC)c1-n1c(C=C(C)C)c(C(=O)N2CCNC(C#N)C2)cc(-c2nc(-c3ccc(Cl)cc3)cs2)c1=O` (stereo not given): the IC50 in assay [1] was 160 nM; in assay [4], 56 nM.
With `COc1ccc(OC)c(-n2c3c(cc(-c4nc(-c5ccc(Cl)cc5)cs4)c2=O)C=CC(C)(C)C3)c1`, the figures for the half-inhibitory concentration (IC50) in assay [1] and in assay [4] were 3000 nM and 1700 nM, respectively. For the same compound, the inhibition in assay [2] turned out to be 76%; in assay [3], 96%.
On to `COc1ccc(OC)c(-n2c3c(cc(-c4cccc(-c5ccc(Cl)cc5)c4)c2=O)C(=O)CC(C)(C)C3)c1`, for which the 50% inhibitory concentration (IC50) in assay [1] and in assay [4] was over 38000 nM each time.
For the compound `CCc1cccc(CC)c1-n1c(C)c(C(=O)OC)cc(-c2nc(-c3ccc(Cl)cc3)cs2)c1=O`, the IC50 in assay [1] and in assay [4] was over 38000 nM in each case.
`CC1(C)CC(=O)c2cc(-c3nc(-c4ccc(Cl)cc4)cs3)c(=O)n(-c3ccccc3OC(F)(F)F)c2C1`: the half-maximal inhibitory concentration (IC50) in assay [1] was determined as 570 nM; in assay [4], 280 nM. For the same compound, the inhibition is 78% in assay [2] and 98% in assay [3].
Taken in the same sequence, the figures for `COc1cccc(OC)c1-n1c2c(cc(-c3nc(-c4ccc(Cl)cc4)cs3)c1=O)C(=O)CC(C)(C)C2` were 2400 nM, 1600 nM, 75% and 87%.
Taken in the same sequence, the figures for `COc1cccc(C(=O)O)c1-n1c2c(cc(-c3nc(-c4ccc(Cl)cc4)cs3)c1=O)C(=O)CC(C)(C)C2` were 910 nM, 2000 nM, 108% and 102%.
On to `CCc1cccc(Cl)c1-n1c(C=C(C)C)c(C(=O)N2CCNCC2)cc(-c2nc(-c3ccc(Cl)cc3)cs2)c1=O`, for which the values for the half-maximal inhibitory concentration (IC50) in assay [1] and in assay [4] were 44 nM and 55 nM, respectively.
`COc1ccc(OC)c(-n2c3c(cc(-n4cc(-c5ccccc5)cn4)c2=O)C(=O)CC(C)(C)C3)c1`: the inhibition in assay [3] was found to be 31%. Also, the IC50 in assay [4] is over 38000 nM.
Consider `COc1ccc(OC)c(-n2c3c(cc(-c4nc5ccc(Cl)cc5s4)c2=O)C(=O)CC(C)(C)C3)c1`, for which the inhibition in assay [2] came to 94%; in assay [3], 50%. Also, the IC50 in assay [4] was 2500 nM.
As to `COc1ccc(OC)c(-n2c3c(cc(-c4ccc(-c5ccccc5)cc4)c2=O)C(=O)CC(C)(C)C3)c1`, the IC50 in assay [1] and in assay [4] was over 38000 nM throughout.
In the case of `CCc1cccc(C)c1-n1c(C=C(C)C)c(C(=O)N2CCNCC2)cc(-c2nc(-c3ccc(Cl)cc3)cs2)c1=O`, the figures for the IC50 in assay [1] and in assay [4] were 270 nM and 2200 nM, respectively.
Taken in the same sequence, the figures for `CCc1cccc(CC)c1-n1c(C=C(C)C)c(C(=O)N2CCNC(CC)C2)cc(-c2nc(-c3ccc(Cl)cc3)cs2)c1=O` (stereo not given) were 100 nM and 72 nM.
On to `CCc1ccccc1-n1c(C=C(C)C)c(C(=O)N2CCNCC2)cc(-c2nc(-c3ccc(Cl)cc3)cs2)c1=O`, for which the half-maximal inhibitory concentration (IC50) in assay [1] came to 56 nM; in assay [4], 160 nM.
On to `COc1ccc(OC)c(-n2c(C)ccc(-c3nc(-c4ccc(Cl)cc4)cs3)c2=O)c1`, for which the IC50 in assay [1] and in assay [4] was over 38000 nM in each case.
On to `CCOc1ccccc1-n1c2c(cc(-c3nc(-c4ccc(Cl)cc4)cs3)c1=O)C(=O)CC(C)(C)C2`, for which the inhibition was determined as 81% in assay [2] and 88% in assay [3]. Besides, in assay [4], the IC50 was determined as 410 nM.
For the compound `CCc1cccc(CC)c1-n1c(C=C(C)C)c(C(=O)N2CC3(CNC3)C2)cc(-c2nc(-c3ccc(Cl)cc3)cs2)c1=O`, the half-inhibitory concentration (IC50) is 240 nM in assay [1] and 64 nM in assay [4].
In the same order, the values of `COc1ccc(OC)c(-n2cccc(-c3nc(-c4ccc(Cl)cc4)cs3)c2=O)c1` are over 38000 nM and over 38000 nM.
`COc1ccc(OC)c(-n2c3c(cc(C(=O)NCc4ccc(Cl)cc4)c2=O)C(=O)CC(C)(C)C3)c1`: the inhibition in assay [3] amounted to 35%. In assay [4], the IC50 is over 38000 nM.
As for `CC1(C)CC(=O)c2cc(-c3nc(-c4ccc(Cl)cc4)cs3)c(=O)n(C3CCCCC3)c2C1`, the IC50 in assay [1] and in assay [4] was over 38000 nM each time.
Take `CCc1cccc(CC)c1-n1c(C=C(C)C)c(C(=O)N2CCNC(C(F)(F)F)C2)cc(-c2nc(-c3ccc(Cl)cc3)cs2)c1=O` (stereo not given): the IC50 in assay [1] worked out at 360 nM; in assay [4], 130 nM.
Taken in the same sequence, the figures for `CC(C)=Cc1c(C(=O)N2CCNCC2)cc(-c2nc(-c3ccc(Cl)cc3)cs2)c(=O)n1-c1ccccc1` were 330 nM and 3200 nM.
On to `CCc1cccc(CC)c1-n1c(C)c(C(=O)NCC(C)C)cc(-c2nc(-c3ccc(Cl)cc3)cs2)c1=O`, for which the figures for the half-inhibitory concentration (IC50) in assay [1] and in assay [4] were over 38000 nM and 810 nM, respectively. In assay [2], the inhibition was determined as 56%.
For the compound `CCc1ccc(C)cc1-n1c(C=C(C)C)c(C(=O)N2CCNCC2)cc(-c2nc(-c3ccc(Cl)cc3)cs2)c1=O`, the half-inhibitory concentration (IC50) in assay [1] came to 44 nM; in assay [4] it was 110 nM.
`CCCC1CN(C(=O)c2cc(-c3nc(-c4ccc(Cl)cc4)cs3)c(=O)n(-c3c(CC)cccc3CC)c2C=C(C)C)CCN1` (stereo not given): the figures for the half-inhibitory concentration (IC50) in assay [1] and in assay [4] were 130 nM and 82 nM, respectively.
